Here are results for 24 compounds from PubChem BioAssay AID248 (DTP/NCI, 2004).

The test deals with L1210 leukemia ip in BDF1 mice, survival T/C. The test can be described thus: NCI In Vivo Anticancer Drug Screen. Data for tumor model L1210 Leukemia (intraperitoneal) in B6D2F1 (BDF1) mice. Conditions: endpoint: mean survival time, higher = longer survival. The procedure, abridged: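 Read-out is survival time, reported as the treated-group measurement over the vehicle-control measurement.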

[1] abbreviates: dose: 100.0 mg/kg/injection, schedule: Q04DX002 (ip), vehicle: saline with Tween-80.
[2] abbreviates: dose: 100.0 mg/kg/injection, schedule: Q04DX003 (ip), vehicle: saline with Tween-80.
The mark [3] stands for this setting: dose: 200.0 mg/kg/injection, schedule: Q04DX002 (ip), vehicle: saline with Tween-80.
Setting [4] is: dose: 400.0 mg/kg/injection, schedule: Q04DX002 (ip), vehicle: saline with Tween-80.
The mark [5] stands for this setting: dose: 100.0 mg/kg/injection, schedule: Q04DX002 (ip), vehicle: Klucel (hydroxypropylcellulose) (HPC).
The mark [6] stands for this setting: dose: 200.0 mg/kg/injection, schedule: Q04DX002 (ip), vehicle: Klucel (hydroxypropylcellulose) (HPC).
The mark [7] stands for this setting: dose: 400.0 mg/kg/injection, schedule: Q04DX002 (ip), vehicle: Klucel (hydroxypropylcellulose) (HPC).
Setting [8] is: dose: 75.0 mg/kg/injection, schedule: Q01DX001 (ip), vehicle: saline.
[9] abbreviates: dose: 150.0 mg/kg/injection, schedule: Q01DX001 (ip), vehicle: saline.
Where [10] appears, read: dose: 50.0 mg/kg/injection, schedule: Q01DX001 (ip), vehicle: carboxymethylcellulose (CMC).
The mark [11] stands for this setting: dose: 100.0 mg/kg/injection, schedule: Q01DX001 (ip), vehicle: carboxymethylcellulose (CMC).
Setting [12] is: dose: 200.0 mg/kg/injection, schedule: Q01DX001 (ip), vehicle: carboxymethylcellulose (CMC).
[13] abbreviates: dose: 400.0 mg/kg/injection, schedule: Q01DX001 (ip), vehicle: carboxymethylcellulose (CMC).
The mark [14] stands for this setting: dose: 50.0 mg/kg/injection, schedule: Q01DX001 (ip), vehicle: saline.
The mark [15] stands for this setting: dose: 100.0 mg/kg/injection, schedule: Q01DX001 (ip), vehicle: saline.
[16] abbreviates: dose: 200.0 mg/kg/injection, schedule: Q01DX001 (ip), vehicle: saline.
Where [17] appears, read: dose: 400.0 mg/kg/injection, schedule: Q01DX001 (ip), vehicle: saline.
The mark [18] stands for this setting: dose: 100.0 mg/kg/injection, schedule: Q04DX002 (ip), vehicle: saline.
The mark [19] stands for this setting: dose: 100.0 mg/kg/injection, schedule: Q01DX001 (ip), vehicle: Klucel (hydroxypropylcellulose) (HPC).
Where [20] appears, read: dose: 200.0 mg/kg/injection, schedule: Q01DX001 (ip), vehicle: Klucel (hydroxypropylcellulose) (HPC).
The mark [21] stands for this setting: dose: 400.0 mg/kg/injection, schedule: Q01DX001 (ip), vehicle: Klucel (hydroxypropylcellulose) (HPC).

“And” between values parts separate entries of the source, which are not always exact repeats. Identical values can stand only once. Inconclusive results and toxic doses are left out.

Regarding `COc1ccc(C)cc1NC(=S)NC(=O)c1cccc([N+](=O)[O-])c1`, the T/C reads like this: (dose: 100.0 mg/kg/injection, schedule: Q01DX001 (ip), vehicle: saline with Tween-80) 93 % of control; (dose: 100.0 mg/kg/injection, schedule: Q01DX009 (ip), vehicle: saline with Tween-80) 100 % of control and 89 % of control; under setting [1], 87 % of control; under setting [2], 101 % of control; (dose: 200.0 mg/kg/injection, schedule: Q01DX001 (ip), vehicle: saline with Tween-80) 89 % of control; (dose: 200.0 mg/kg/injection, schedule: Q01DX009 (ip), vehicle: saline with Tween-80) 96 % of control and 97 % of control. The T/C was 97 % of control under setting [3]; 93 % of control (dose: 200.0 mg/kg/injection, schedule: Q04DX003 (ip), vehicle: saline with Tween-80); 92 % of control and 101 % of control (dose: 400.0 mg/kg/injection, schedule: Q01DX009 (ip), vehicle: saline with Tween-80); 90 % of control under setting [4]; 88 % of control (dose: 400.0 mg/kg/injection, schedule: Q04DX003 (ip), vehicle: saline with Tween-80).

Take `C/C=C/C1CCCCC1`: the T/C was 97 % of control (dose: 50.0 mg/kg/injection, schedule: Q01DX009 (ip), vehicle: saline); 97 % of control (dose: 100.0 mg/kg/injection, schedule: Q01DX009 (ip), vehicle: saline); 93 % of control (dose: 200.0 mg/kg/injection, schedule: Q01DX009 (ip), vehicle: saline).

With `c1ccc2c(CCCCc3nccc4ccccc34)nccc2c1`, the T/C runs as follows: under setting [5], 102 % of control; under setting [6], 97 % of control; under setting [7], 89 % of control.

On to `COP(=S)(OC)N(C)C`, for which the T/C by setting is: under setting [8], 101 % of control; under setting [9], 96 % of control.

`CCCCCC/S(C)=N\S(=O)(=O)c1ccc(Br)cc1` (stereo not drawn): the T/C is 100 % of control under setting [10], 103 % of control under setting [11], 97 % of control under setting [12] and 114 % of control under setting [13].

`Oc1ccccc1C=NCCCN1CCOCC1.Oc1ccccc1C=NCCCN1CCOCC1.[Co]`: the T/C (dose: 12.5 mg/kg/injection, schedule: Q01DX001 (ip), vehicle: saline) was 98 % of control; the T/C (dose: 25.0 mg/kg/injection, schedule: Q01DX001 (ip), vehicle: saline) is 100 % of control; the T/C under setting [14] was 98 % of control.

As for `O=c1[nH]c2cnn(-c3ccccc3)c2c(=O)n1O`, the T/C reads like this: under setting [14], 97 % of control; under setting [15], 97 % of control; under setting [16], 97 % of control; under setting [17], 105 % of control.

For `C/C(=N/NC(N)=O)C1CC2CCC1CC2` (stereo not drawn), the T/C runs as follows: (dose: 50.0 mg/kg/injection, schedule: Q01DX009 (ip), vehicle: Klucel (hydroxypropylcellulose) (HPC)) 102 % of control; (dose: 100.0 mg/kg/injection, schedule: Q01DX009 (ip), vehicle: Klucel (hydroxypropylcellulose) (HPC)) 93 % of control; (dose: 200.0 mg/kg/injection, schedule: Q01DX009 (ip), vehicle: Klucel (hydroxypropylcellulose) (HPC)) 89 % of control.

`CCSc1ncc(F)c(=O)[nH]1`: the T/C under setting [14] was 113 % of control, the T/C under setting [15] was 101 % of control and the T/C under setting [16] was 98 % of control.

`O=C(O)C1=C2C(=O)Nc3cccc(c32)C2(C1)C(=O)Nc1ccccc12` (stereo not drawn): the T/C is 103 % of control under setting [1], 103 % of control under setting [3] and 103 % of control under setting [4].

On to `CN(CC(=O)O)Cc1oc(CO)cc(=O)c1O`, for which the T/C reads like this: under setting [15], 110 % of control; under setting [16], 95 % of control; under setting [17], 95 % of control.

Turning to `COc1cc(CC2COC(=O)C2Cc2ccc(OC3OC(CO)C(O)C(O)C3O)c(OC)c2)ccc1O` (stereo not drawn), the T/C was 111 % of control (dose: 25.0 mg/kg/injection, schedule: Q04DX002 (ip), vehicle: saline); 104 % of control (dose: 50.0 mg/kg/injection, schedule: Q04DX002 (ip), vehicle: saline); 107 % of control under setting [18].

Consider `C=C(C)c1ccc(C)cc1-c1c(OCc2ccccc2)ccc(CCCCC)c1OC`, for which the T/C was 97 % of control under setting [19], 92 % of control under setting [20] and 92 % of control under setting [21].

As for `CC(C)(C)C#C[P+](C#CC(C)(C)C)(Cc1ccccc1)c1ccccc1`, the T/C is 99 % of control (dose: 12.5 mg/kg/injection, schedule: Q01DX009 (ip), vehicle: saline); 98 % of control (dose: 12.5 mg/kg/injection, schedule: Q04DX003 (ip), vehicle: saline); 94 % of control (dose: 25.0 mg/kg/injection, schedule: Q01DX009 (ip), vehicle: saline); 106 % of control (dose: 25.0 mg/kg/injection, schedule: Q04DX003 (ip), vehicle: saline); 117 % of control (dose: 50.0 mg/kg/injection, schedule: Q04DX003 (ip), vehicle: saline).

With `O=C(C1CC=CCC1)N1CCCCCC1` (stereo not drawn), the T/C under setting [18] is 101 % of control; the T/C (dose: 200.0 mg/kg/injection, schedule: Q04DX002 (ip), vehicle: saline) was 111 % of control; the T/C (dose: 400.0 mg/kg/injection, schedule: Q04DX002 (ip), vehicle: saline) was 99 % of control.

Regarding `CCOC(=O)C(C)(C)CCC(C)(C)C(=O)OCC`, the T/C is 97 % of control under setting [5], 103 % of control under setting [6] and 90 % of control under setting [7].

As to `CC(=O)OCC1OC(n2c(Br)nc3c(N)ncnc32)C2OC(C)(C)OC12` (stereo not drawn), the T/C was 95 % of control (dose: 25.0 mg/kg/injection, schedule: Q01DX001 (ip), vehicle: carboxymethylcellulose (CMC)); 100 % of control under setting [10]; 93 % of control under setting [11].

For the compound `CCC(C)(C)c1ccc(OCCOS(=O)(=O)c2ccc(C)cc2)cc1`, the T/C is 96 % of control (dose: 100.0 mg/kg/injection, schedule: Q01DX009 (ip), vehicle: saline sonified); 108 % of control (dose: 200.0 mg/kg/injection, schedule: Q01DX009 (ip), vehicle: saline sonified); 97 % of control (dose: 400.0 mg/kg/injection, schedule: Q01DX009 (ip), vehicle: saline sonified).

In the case of `CCN(CCCl)CCCNCc1c2ccccc2c(C)c2ccccc12`, the T/C (dose: 5.0 mg/kg/injection, schedule: Q01DX005 (ip), vehicle: saline) is 116 % of control.

Regarding `C#CCCCN1CCC2(CC1)C(=O)N(C(=O)N(C)C)CN2c1ccccc1`, the T/C (dose: 25.0 mg/kg/injection, schedule: Q04DX003 (ip), vehicle: saline with Tween-80) is 105 % of control; the T/C (dose: 50.0 mg/kg/injection, schedule: Q04DX003 (ip), vehicle: saline with Tween-80) is 103 % of control; the T/C under setting [2] is 88 % of control and 92 % of control.

Regarding `NC(CSC(c1ccccc1)(c1ccccc1)c1ccc(CO)cc1)C(=O)O` (stereo not drawn), the T/C was 150 % of control and 157 % of control (dose: 400.0 mg/kg/injection, schedule: Q01DX009 (ip), vehicle: saline); 168 % of control (dose: 600.0 mg/kg/injection, schedule: Q01DX009 (ip), vehicle: saline).

For the compound `Clc1ccc(/C=C/c2nc(Cl)c(-c3ccc(Cl)cc3)c(Cl)n2)cc1`, the T/C by setting is: under setting [8], 105 % of control; under setting [9], 92 % of control; (dose: 150.0 mg/kg/injection, schedule: Q04DX003 (ip), vehicle: Klucel (hydroxypropylcellulose) (HPC)) 113 % of control; (dose: 300.0 mg/kg/injection, schedule: Q01DX001 (ip), vehicle: saline) 97 % of control; (dose: 300.0 mg/kg/injection, schedule: Q04DX003 (ip), vehicle: Klucel (hydroxypropylcellulose) (HPC)) 92 % of control.

Consider `N=C1SSC(=S)C1C(N)=O` (stereo not drawn), for which the T/C under setting [10] is 94 % of control, the T/C under setting [11] is 96 % of control, the T/C under setting [12] is 100 % of control and the T/C under setting [13] was 100 % of control.

Regarding `CC1(C)CCCC2(C)C3CCC(C31)C2OC(=O)c1ccc([N+](=O)[O-])cc1` (stereo not drawn), the T/C is, setting by setting: under setting [19], 101 % of control; under setting [20], 98 % of control; under setting [21], 93 % of control.
